In general, IC50 refers to the concentration at which inhibition is half-maximal.

Each structure is given as a SMILES string.

Assay [1] deals with phosphorylated GSK3β serine 9 (pGSK3β). Put plainly: AlphaScreen SureFire detection of pGSK3β in U87MG cells. Format: cell-based. The following applies: Homo sapiens, U-87 MG, 1 hour. As for the experimental part:
The effect of compounds on the formation of endogenous phosphorylated S6 ribosomal protein serine 240/244 (pS6) and phosphorylated GSK3β serine 9 (pGSK3β) are measured using the AlphaScreen SureFire® for either pS6 (TGR Biosciences, TGRS6P2S10K) or pGSK3β(TGRGBS10K). This is a homogeneous assay format using immuno-sandwich capture of the phosphorylated analyte followed by detection using antibody-coated Alphascreen beads to generate an amplified signal.
U87MG cells are maintained in U87MG growth medium consisting of DMEM supplemented with 10% Fetal bovine serum (FBS), 1% Nonessential amino acids and 1% sodium pyruvate. For the assay, cells are harvested by standard procedures and then counted using Vi-Cell. Cells (50,000/well) are plated in 100 μL of U87MG growth medium into Costar #3596 96 well plates. […]
On the day of the assay, cells are treated with 20 μL/well compound diluted in media containing 6% DMSO. […] The plate is sealed with foil, incubated at RT for 4 hours with gentle shaking and then read on Perkin Elmer EnVision equipped with a TurboModule using standard AlphaScreen® settings (Ex680nm and Em520-620nm). The percent inhibition determined from controls on each plate and ten-point compound concentration data are then fit to a four-parameter logistic equation using ACTIVITYBASE 4.0 (Assay Guidance Manual Version 5.0, 2008, Eli Lilly and Company and NIH Chemical Genomics Center).
A general note: Bead proximity is the source of the signal in Alpha formats.

For assay [2], the target named is T1, p70 S6 Kinase (Homo sapiens, UniProt P23443, T412E).
T1 construct: amino acids 1-421, T412E; His tag (N)
Put plainly: p70 S6 Kinase In Vitro Enzyme Assay (Transcreener Kinase ADP-FP). Format: biochemical. The following applies: 25 micromolar ATP; read-out: IC50 against p70 S6 Kinase. As for the experimental part: Compound IC50 values against p70 S6 Kinase target are determined using the p70 S6 Transcreener™ Kinase ADP-FP Assay. This assay assesses the activity of p70 S6 kinase in the presence of compound inhibitors by measuring the concentration of adenosine diphosphate (ADP) formed in a kinase reaction. The kinase reactions (25 μL reaction volumes) are performed in 96-well half-area black polystyrene plates. Adenosine triphosphate (ATP) is added to start the reactions. Final reaction conditions are 10 millimolar N-2-hydroxyethyl-piperazine-N′-2-ethanesulfonic acid (HEPES) pH 7.5, 0.005% TRITON™ X-100, 0.082 millimolar ethyleneglycol tetraacetic acid (EGTA), 1 millimolar dithiothreitol, 10 millimolar magnesium chloride, 4 micromolar substrate peptide, 25 micromolar ATP, active p70 S6 Kinase (Human recombinant, amino acids 1-421, T412E, N-terminal histidine-tagged), 4% DMSO and serial dilutions of compound (diluted 1:3 from 20,000 to 1 nanomolar). […] Quenched reactions are incubated for 4-16 hours, and then read in a Tecan Ultra Evolution plate reader in Fluorescence Polarization mode using polarizing filters of Ex612nm and Em633nm wavelength. […] The IC50 value for each compound is derived using percent inhibition data which is calculated using the micromolar ADP reaction data relative to on-plate controls (active enzyme versus 100 millimolar inhibited enzyme controls). […]

T1 sequence (P23443 1-421 T412E): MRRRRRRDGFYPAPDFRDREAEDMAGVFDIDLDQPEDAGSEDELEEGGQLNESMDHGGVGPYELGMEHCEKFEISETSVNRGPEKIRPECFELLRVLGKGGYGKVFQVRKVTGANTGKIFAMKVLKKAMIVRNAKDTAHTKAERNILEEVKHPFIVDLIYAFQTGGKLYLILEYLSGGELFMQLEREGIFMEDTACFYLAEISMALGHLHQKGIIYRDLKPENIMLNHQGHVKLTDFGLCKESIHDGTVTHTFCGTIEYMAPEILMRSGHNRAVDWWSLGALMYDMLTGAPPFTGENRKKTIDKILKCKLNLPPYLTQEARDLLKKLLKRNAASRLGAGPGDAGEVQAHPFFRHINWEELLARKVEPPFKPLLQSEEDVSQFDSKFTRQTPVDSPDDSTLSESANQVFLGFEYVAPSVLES

As for `CN(C)CCn1cc(-c2ccc(F)c(C(F)(F)F)c2)nc1C1CCN(c2ncnc3c2C(C)(C)C(=O)N3)CC1` [Example 31], the figures for the IC50 in assay [1] and in assay [2] were 331 nM and 7 nM, respectively.
